Results as given in patent publication US6808877B2, “Ligands for FPR class receptors that induce a host immune response to a pathogen or inhibit HIV infection” (priority 2000, dated 2004).
Where no end group is shown, it is not given here.

Key:
FPRL1(LXA4R) [1] = target: T1, FPRL1(LXA4R) (Homo sapiens, UniProt P25090); details: CHO cells transfected with FPRL1(LXA4R); cited from earlier work
T1 construct: host or cells: CHO cells
T1 sequence (P25090 1-351): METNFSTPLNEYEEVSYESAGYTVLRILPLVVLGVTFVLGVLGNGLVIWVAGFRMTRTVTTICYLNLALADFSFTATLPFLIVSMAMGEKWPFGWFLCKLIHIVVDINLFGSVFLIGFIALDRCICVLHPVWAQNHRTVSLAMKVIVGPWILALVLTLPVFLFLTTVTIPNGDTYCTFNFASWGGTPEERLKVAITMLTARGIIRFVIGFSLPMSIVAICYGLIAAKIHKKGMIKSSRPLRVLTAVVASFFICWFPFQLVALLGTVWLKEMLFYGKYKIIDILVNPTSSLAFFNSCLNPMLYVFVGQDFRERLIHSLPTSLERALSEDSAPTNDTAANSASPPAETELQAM

FPRL1(LXA4R) [2] = target: T1, FPRL1(LXA4R); details: CHO cells transfected with FPRL1(LXA4R); cited from earlier work; remark: listed apart in the source
human neutrophils = details: N-formylated or N-acetylated; cited from earlier work
FPRL1 = target: T2, FPRL1 (Homo sapiens, UniProt P25090); experiment: 3H-fMLP binding to FPRL1/293 cells
T2 construct: expressed in transfected cells; host or cells: HEK 293
T2 sequence (P25090 1-351): T1 sequence (P25090 1-351)
Description: The cells were then washed with ice-cold PBS (phosphate buffered saline) and filtered onto Whatman discs. The radioactivity associated with the cells was measured with a β counter.
The samples were incubated under constant rotation for 30 minutes at 37° C. After incubation, the samples were filtered onto Whatman GF/C discs (Whatman International Ltd., Kent, UK) on a 12-well manifold followed by extensive washing with ice-cold phosphate-buffered saline (PBS). The discs were air-dried at 65° C., submerged in liquid scintilation cocktail, and counted for β emision.

CCCCC[C@H](O)/C=C/C=C\C=C\C=C\[C@@H](O)[C@@H](O)CCCC(=O)O [LXA4, lipoxin A4]
binding affinity (FPRL1(LXA4R) [1]): high affinity | GTPase activity and release of esterified arachidonate (FPRL1(LXA4R) [2]): increased GTPase activity and the release of esterified arachidonate

Met-Ile-Leu-Phe-Phe-OH (MILFF-OH) [ID; No. 2]
potency in the induction of Ca2+ flux relative to fMLP (human neutrophils): more potent than parental fMLP

CSCC[C@H](NC=O)C(=O)N[C@@H](CC(C)C)C(=O)N[C@@H](Cc1ccccc1)C(=O)O [^3H-fMLP]
binding to cells (FPRL1): did not significantly bind
